We go through 41 molecules from patent US20170305922A1, “CARM1 INHIBITORS AND USES THEREOF” (Epizyme, Inc., priority 2014, published 2017).

Experiment [1] deals with T1, Human CARM1 (PRMT4) (Homo sapiens, UniProt Q86X55).
T1 construct: Flag-CARM1-His was eluted with 200 ug/ml FLAG peptide in buffer A; made in house; host or cells: HEK 293F cells infected with recombinant baculovirus (pFastBacMam)
T1 sequence (Q86X55 1-585 isoform Q86X55-1): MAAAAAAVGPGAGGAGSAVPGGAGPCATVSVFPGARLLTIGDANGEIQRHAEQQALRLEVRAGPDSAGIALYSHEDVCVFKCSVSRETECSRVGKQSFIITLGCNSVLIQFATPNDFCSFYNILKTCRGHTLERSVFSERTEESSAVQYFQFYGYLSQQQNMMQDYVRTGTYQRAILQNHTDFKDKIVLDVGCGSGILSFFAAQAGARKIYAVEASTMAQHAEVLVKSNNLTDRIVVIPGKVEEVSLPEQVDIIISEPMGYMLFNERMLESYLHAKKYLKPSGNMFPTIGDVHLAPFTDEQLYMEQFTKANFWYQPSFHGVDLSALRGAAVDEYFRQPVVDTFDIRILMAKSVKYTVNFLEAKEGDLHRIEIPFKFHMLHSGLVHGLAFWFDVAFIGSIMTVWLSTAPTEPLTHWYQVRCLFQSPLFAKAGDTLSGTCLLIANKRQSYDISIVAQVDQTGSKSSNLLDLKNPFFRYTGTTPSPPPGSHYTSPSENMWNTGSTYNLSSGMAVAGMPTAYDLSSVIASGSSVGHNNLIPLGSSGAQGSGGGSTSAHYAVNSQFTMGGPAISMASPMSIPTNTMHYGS
Description: CARM1 enzyme assay on peptide substrates (3H-SAM Flashplate). Particulars: Biochemical assay; CARM1 0.25 nM, 3H-SAM 30 nM, peptide 250 nM; read-out: Biochem IC50.

The test system of experiment [2] is asymmetric di-methyl PABP1 in RKO cells. As to the kind of experiment: RKO methylation assay: In Cell Western (ICW) for asymmetric di-methyl PABP1 (PABP1me2a). The following applies: Homo sapiens, RKO, 48 h, Cellular-based (PABP1me2a) ICW (In Cell Western) assay. The procedure, abridged:
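In-cell western on compound-exposed RKO cells (48 hours): asymmetric di-methyl PABP1 detected by antibody at 800 nm, DNA content by DRAQ5 at 700 nm. Percent inhibition from signal ratios against DMSO (minimum) and 20 μM reference compound (maximum) wells; IC50 curves fitted from triplicates.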

In general, IC50 refers to the concentration needed to halve the response being measured.

Consider `CNC[C@@H](O)COc1ccc(Cl)c(-c2nc(-c3c(C)noc3C)c(C)c(N3CC4(CCC(C(=O)N5CCC5)CC4)C3)n2)c1` [Example 174], for which the IC50 in experiment [1] stood at 3.9 nM; in experiment [2], 271 nM.
For `CCc1onc(C)c1-c1nc(-c2cc(OC[C@H](O)CNC)ccc2Cl)nc(N2Cc3cnc(N4CCC4)nc3C2)c1C` [Example 175], the IC50 in experiment [1] worked out at 1.7 nM; in experiment [2], 13 nM.
The corresponding values for `CCOC(=O)N1CC2=C(C1)CN(c1nc(-c3cc(OC[C@H](O)CNC)ccc3Cl)nc(-c3c(C)noc3C)c1C)C2` [Example 176] are 2.7 nM and 26 nM.
Consider `CNC[C@@H](O)COc1ccc(Cl)c(-c2nc(-c3c(C)noc3C)c(C)c(N3CC4=C(CN(C(=O)N(C)C)C4)C3)n2)c1` [Example 177], for which the IC50 is 3.6 nM in experiment [1] and 87 nM in experiment [2].
The matching figures for `CNC[C@@H](O)COc1ccc(Cl)c(-c2nc(-c3c(C)c(Cl)nn3C)c(C)c(N3Cc4cnc(OCCOC)nc4C3)n2)c1` [Example 178]: 1.4 nM and 24 nM.
For `CCc1onc(C)c1-c1nc(-c2cc(OC[C@H](O)CNC)ccc2Cl)nc(N2CC3(CCN(C(=O)OC)CC3)C2)c1C` [Example 179], the values for the IC50 in experiment [1] and in experiment [2] were 5.1 nM and 119 nM, respectively.
The corresponding values for `CNC[C@@H](O)COc1ccc(Cl)c(-c2nc(-c3c(C)noc3C)c(C)c(N3CC4(CCN(C(=O)OCC(F)F)C4)C3)n2)c1` [Example 180] are 4.1 nM and 121 nM.
On to `CNC[C@@H](O)COc1ccc(Cl)c(-c2nc(-c3c(C)noc3C)c(C)c(N3Cc4cnc(N5CCOC5=O)nc4C3)n2)c1` [Example 181], for which the IC50 in experiment [1] amounted to 1.8 nM; in experiment [2], 459 nM.
The matching figures for `CNC[C@@H](O)COc1ccc(Cl)c(-c2nc(-c3c(C)noc3C)c(C)c(N3Cc4cnc(N(C)C)cc4C3)n2)c1` [Example 183]: 1.8 nM and 31 nM.
The matching figures for `CNC[C@@H](O)COc1ccc(Cl)c(-c2nc(-c3c(C)noc3C)c(C)c(N3CC(F)(C(=O)N4CCC4)C3)n2)c1` [Example 184]: 6.1 nM and 488 nM.
The corresponding values for `CNC[C@@H](O)COc1ccc(Cl)c(-c2nc(-c3c(C)noc3C)c(C)c(N3CC(F)(C(=O)N(C)C)C3)n2)c1` [Example 185] are 5.1 nM and 346 nM.
On to `CNC[C@@H](O)COc1ccc(Cl)c(-c2nc(-c3c(C)noc3C)c(C)c(N3Cc4ccnc(N(C)C)c4C3)n2)c1` [Example 186], for which the results for the IC50 in experiment [1] and in experiment [2] were 1.8 nM and 49 nM, respectively.
The matching figures for `CNC[C@@H](O)COc1ccc(Cl)c(-c2nc(-c3c(C)noc3C)c(C)c(N3CC(C)(C(=O)N4CCC4)C3)n2)c1` [Example 187]: 5.8 nM and 337 nM.
The matching figures for `CNC[C@@H](O)COc1ccc(Cl)c(-c2nc(-c3c(C)noc3C)c(C)c(N3CC(C)(C(=O)N(C)C)C3)n2)c1` [Example 188]: 5.2 nM and 150 nM.
The matching figures for `CCC1(C(=O)N2CCC2)CN(c2nc(-c3cc(OC[C@H](O)CNC)ccc3Cl)nc(-c3c(C)noc3C)c2C)C1` [Example 189]: 5.7 nM and 246 nM.
As to `CCC1(C(=O)N(C)C)CN(c2nc(-c3cc(OC[C@H](O)CNC)ccc3Cl)nc(-c3c(C)noc3C)c2C)C1` [Example 190], the IC50 in experiment [1] amounted to 6.2 nM; in experiment [2], 138 nM.
The matching figures for `CNC[C@@H](O)COc1ccc(Cl)c(-c2nc(-c3c(C)noc3C)c(C)c(N3CC4(CCN(C(=O)OCC(F)F)CC4)C3)n2)c1` [Example 191]: 10.5 nM and 174 nM.
The corresponding values for `CNC[C@@H](O)COc1ccc(Cl)c(-c2nc(-c3c(C)c(Cl)nn3C)c(C)c(N3CC4(CCN(C(=O)OC)CC4)C3)n2)c1` [Example 192] are 4.7 nM and 58 nM.
Take `CNC[C@@H](O)COc1ccc(Cl)c(-c2nc(-c3c(C)c(Cl)nn3C)c(C)c(N3CC4(CC(OC)C4)C3)n2)c1` [Example 193]: the figures for the IC50 in experiment [1] and in experiment [2] were 4.1 nM and 52 nM, respectively.
The matching figures for `CNC[C@@H](O)COc1ccc(Cl)c(-c2nc(-c3c(C)noc3C)c(C)c(N3Cc4cnc(N5CC[C@H]5C)nc4C3)n2)c1` [Example 194]: 1.8 nM and 13 nM.
For the molecule `CNC[C@@H](O)COc1ccc(Cl)c(-c2nc(-c3c(C)noc3C)c(C)c(N3Cc4cnc(N5CC[C@@H]5C)nc4C3)n2)c1` [Example 195], the IC50 stood at 1.8 nM in experiment [1] and 13 nM in experiment [2].
On to `CNC[C@@H](O)COc1ccc(Cl)c(-c2nc(-c3c(C)noc3C)c(C)c(N3Cc4ccc(N5CCOCC5)nc4C3)n2)c1` [Example 196], for which the IC50 is 2 nM in experiment [1] and 20 nM in experiment [2].
On to `CNC[C@@H](O)COc1ccc(Cl)c(-c2nc(-c3c(C)noc3C)c(C)c(N3Cc4cnc(NCCO)nc4C3)n2)c1` [Example 197], for which the concentration for half-maximal inhibition (IC50) in experiment [1] is 2.6 nM; in experiment [2], 381 nM.
The corresponding values for `CNC[C@@H](O)COc1ccc(Cl)c(-c2nc(-c3c(C)noc3C)c(C)c(N3CC4=C(C3)CN(c3nc(-c5cc(OC[C@H](O)CNC)ccc5Cl)nc(-c5c(C)noc5C)c3C)C4)n2)c1` [Example 198] are 0.4 nM and 171 nM.
The corresponding values for `CCOc1ncc2c(n1)CN(c1nc(-c3cc(OC[C@H](O)CNC)ccc3Cl)nc(-c3c(C)noc3CC)c1C)C2` [Example 199] are 5.7 nM and 84 nM.
The corresponding values for `CNC[C@@H](O)COc1ccc(Cl)c(-c2nc(-c3c(C)noc3C)c(C)c(N3Cc4ccnc(C)c4C3)n2)c1` [Example 200] are 2.1 nM and 47 nM.
Consider `CNC[C@@H](O)COc1ccc(Cl)c(-c2nc(-c3c(C)noc3C)c(C)c(N3CCN(CC(F)(F)F)CC3)n2)c1` [Example 201], for which the results for the IC50 in experiment [1] and in experiment [2] were 4.8 nM and 295 nM, respectively.
The corresponding values for `CC[C@@H]1CN(c2nc(-c3cc(OC[C@H](O)CNC)ccc3Cl)nc(-c3c(C)noc3C)c2C)CCN1S(C)(=O)=O` [Example 202] are 3.3 nM and 233 nM.
The matching figures for `CC[C@@H]1CN(c2nc(-c3cc(OC[C@H](O)CNC)ccc3Cl)nc(-c3c(C)noc3C)c2C)CCN1CC(F)F` [Example 203]: 4.6 nM and 200 nM.
The matching figures for `CC[C@H]1CN(c2nc(-c3cc(OC[C@H](O)CNC)ccc3Cl)nc(-c3c(C)noc3C)c2C)CCN1S(C)(=O)=O` [Example 204]: 4.3 nM and 486 nM.
For `CC[C@@H]1CN(c2nc(-c3cc(OC[C@H](O)CNC)ccc3Cl)nc(-c3c(C)noc3C)c2C)CCN1C(=O)OC` [Example 205], the figures for the IC50 in experiment [1] and in experiment [2] were 3.7 nM and 202 nM, respectively.
The matching figures for `CC[C@H]1CN(c2nc(-c3cc(OC[C@H](O)CNC)ccc3Cl)nc(-c3c(C)noc3C)c2C)CCN1C(=O)OC` [Example 206]: 5.4 nM and 696 nM.
The corresponding values for `CCc1onc(C)c1-c1nc(-c2cc(OC[C@H](O)CNC)ccc2Cl)nc(N2Cc3cccnc3C2)c1C` [Example 207] are 1.5 nM and 74 nM.
The corresponding values for `CNC[C@@H](O)COc1ccc(Cl)c(-c2nc(-c3c(C)noc3C)c(C)c(N3CC4(C3)CC(OC)(C(F)(F)F)C4)n2)c1` [Example 208] are 5.2 nM and 142 nM.
`CNC[C@@H](O)COc1ccc(Cl)c(-c2nc(-c3c(C)noc3C)c(C)c(N3Cc4nccc(N(C)C)c4C3)n2)c1` [Example 209]: the IC50 stood at 0.6 nM in experiment [1] and 129 nM in experiment [2].
The matching figures for `CNC[C@@H](O)COc1ccc(Cl)c(-c2nc(-c3c(C)noc3C)c(C)c(N3Cc4nc(C5CC5)oc4C3)n2)c1` [Example 210]: 2.1 nM and 120 nM.
The corresponding values for `CNC[C@@H](O)COc1ccc(Cl)c(-c2nc(-c3c(C)noc3C)c(C)c(N3CC4=C(C3)CN(C3CC3)C4)n2)c1` [Example 211] are 1.7 nM and 75 nM.
The corresponding values for `CNC[C@@H](O)COc1ccc(Cl)c(-c2nc(-c3c(C)noc3C)c(C)c(N3Cc4ccnc(OC)c4C3)n2)c1` [Example 212] are 2.1 nM and 40 nM.
Take `CNC[C@@H](O)COc1ccc(Cl)c(-c2nc(-c3c(C)noc3C)c(C)c(N3CC4(C3)CC(O)(C(F)(F)F)C4)n2)c1` [Example 213]: the IC50 in experiment [1] came to 5.4 nM; in experiment [2] it was 330 nM.
The matching figures for `CCN(C)c1nccc2c1CN(c1nc(-c3cc(OC[C@H](O)CNC)ccc3Cl)nc(-c3c(C)noc3C)c1C)C2` [Example 214]: 1.1 nM and 46 nM.
The matching figures for `CNC[C@@H](O)COc1ccc(Cl)c(-c2nc(-c3c(C)c(Br)nn3C)c(C)c(N3CC4(CN(CC(F)(F)F)C4)C3)n2)c1` [Example 215]: 4.4 nM and 23 nM.
